The values that follow come from patent US9242008B2, “Mineral amino-acid complexes of fatty acids” (Thetis Pharmaceuticals LLC, priority 2014, dated 2016).

A short description of data set [1]: single dose, oral pharmacokinetic study in rats (total EPA plasma levels). It counts as in vivo. An excerpt: The results of a single dose, oral pharmacokinetic study in rats for a compound of Formula III (designated TP-252, Mg-Lys2-EPA2) are shown in Table 1 below. One of the parameters shown in Table 1 is the area under the curve (AUC), which is the integral of a plot of concentration of drug in blood plasma against time. The AUC is proportional to the total amount of the active pharmaceutical agent (API) that reaches the blood circulation. In this example, the API (or analyte) is EPA. AUC and Cmax are given for the compound of Formula III, EPA free fatty acid (EPA FFA), and EPA ethyl ester (EPA EE). EPA ethyl ester is the FDA-approved form of EPA.

The nature of data set [2]: Physical stability study (proton NMR after exposure to air at room temperature). It counts as physicochemical. The text has this: FIG. 1: Proton NMR spectrum of magnesium bis-lysinate bis-EPA taken on the day the compound was synthesized (upper trace) and 60-days later (lower trace) with the compound having been exposed to air at room temperature for the entire 60-day period.
The compounds of the invention are remarkably stable compared to omega-3 polyunsaturated free fatty acids, which typically show evidence of oxidative degradation with hours of exposure to atmospheric oxygen. […] The upper tracing in FIG. 1 is a proton NMR spectrum of magnesium bis-lysinate bis-EPA taken on the day the compound was synthesized. The lower tracing is the NMR taken 60-days later with the compound having been exposed to air at room temperature for the entire period.

For `CC/C=C\C/C=C\C/C=C\C/C=C\C/C=C\CCCC(=O)O.CC/C=C\C/C=C\C/C=C\C/C=C\C/C=C\CCCC(=O)O.NCCCC[C@H](N)C(=O)[O-].NCCCC[C@H](N)C(=O)[O-].[Mg+2]` [TP-252, magnesium bis-lysinate bis-EPA dihydrate], the “EPA delivered to the blood plasma versus equivalent doses of EPA free fatty acid or EPA ethyl ester” value in data set [1] is “delivers significantly more EPA to the blood plasma”. Moreover, the “Baseline and EPA Molar Dose Equivalent Adjusted Cmax of Total EPA in plasma” value in data set [1] (total dose 40.0 mg/kg, analyte EPA, Cmax minus predose level, multiplied by EPA molar dose adjustment factor) came out at 13200 ng/mL. Moreover, the Baseline and EPA Molar Dose Equivalent Adjusted AUC0-18 hrs of Total EPA in plasma in data set [1] (total dose 40.0 mg/kg, analyte EPA, baseline adjusted and multiplied by EPA molar dose adjustment factor) came to 133 µg·h/mL. In addition, the “proton NMR evidence of oxidation or degradation” value in data set [2] (after 60 days exposed to air at room temperature versus day of synthesis) is given as “no evidence of oxidation or degradation by other mechanisms”. Also, the time chemically stable in data set [2] (room temperature, exposed to air) is “at least 60 days”.
